Laboratory results taken from patent US12103919B2, “3-(5-oxy)-1-oxoisoindolin-2-yl)piperidine-2,6-dione derivatives and uses thereof” (NOVARTIS AG, priority 2021, dated 2024).

Assays:
Fetal Hemoglobin (HbF) = assay: Small molecule HbF induction assay in erythroid-differentiated mPB CD34+ cells (flow cytometry); type: cell-based, human; settings: highest percentage of cells staining positive for HbF (% HbF+ cells) in fitted dose-response curve; DMSO baseline approximately 30-40%
Method: Cryopreserved primary human CD34^+ hematopoietic stem and progenitor cells were obtained from AllCeIIs, LLC. The CD34^+ cells were isolated from the peripheral blood of healthy donors after mobilization by administration of granulocyte colony-stimulating factor. Cells were differentiated ex vivo toward the erythroid lineage using a 2-phase culture method. In the first phase, cells were cultured in Stemspan™ Serum-Free Expansion Media (SFEM) ([…] Technologies Inc.) supplemented with rhSCF (50 ng/mL, Peprotech®, Inc.), rhlL-6 (50 ng/mL, Peprotech®, Inc.), rhlL-3 (50 ng/mL, Peprotech®, Inc.), and rhFlt3L (50 ng/mL, Peprotech®, Inc.), and 1× antibiotic-antimycotic (Life Technologies, Thermo Fisher Scientific) for 6 days at 37° C. with 5% CO2. During the second phase, cells were cultured in erythroid differentiation media at 5,000 cells/mL in the presence of compound for 7 days at 37° C. with 5% […]. Erythroid Differentiation Media is comprised of IMDM (Life Technologies) supplemented with insulin (10 μg/mL. Sigma Aldrich), heparin (2 U/mL Sigma Aldrich), holo-transferrin (330 μg/mL, Sigma Aldrich), human serum AB (5%, Sigma Aldrich), hydrocortisone (1 μM, […] Technologies), rhSCF (100 ng/mL, Peprotech®, Inc.), rhIL-3 (5 ng/mL. Peprotech®, Inc.), rhEPO (3 U/mL, Peprotech®, Inc.), and 1× antibiotic-antimycotic. All compounds were dissolved and diluted into dimethylsulfoxide (DMSO) and were added to culture media for a final concentration of 0.3% DMSO for testing in a 10-point, 1:3 dilution series starting at 10 uM.
For viability analysis, samples were washed and resuspended in phosphate-buffered saline (PBS) and stained with LlVE/DEAD™ Fixable Violet Dead Cell Stain Kit (Life Technologies, L34963) for 20 minutes. Cells were then washed again with PBS and resuspended in PBS supplemented with 2% fetal bovine serum (FBS), and 2 mM EDTA to prepare for cell surface marker analysis. […]
mPB CD34+ cells were expanded for 6 days, then erythroid differentiated in the presence of compound for 7 days. Cells were fixed, stained and analyzed by flow cytometry. […]

SALL4 = biological target: T1, SALL4 (Homo sapiens, UniProt Q96SW2+Q9UJQ4); assay: Quantification of SALL4 protein levels in HiBiT tag fusion protein assay; type: cell-based
T1 construct: expressed in transfected cells; host or cells: GripTite 293 MSR cells (293GT), ThermoFisher Scientific, stably transfected by electroporation, blasticidin-selected clones
T1 sequence (Q9UJQ4 whole entry, the tested form may be a part): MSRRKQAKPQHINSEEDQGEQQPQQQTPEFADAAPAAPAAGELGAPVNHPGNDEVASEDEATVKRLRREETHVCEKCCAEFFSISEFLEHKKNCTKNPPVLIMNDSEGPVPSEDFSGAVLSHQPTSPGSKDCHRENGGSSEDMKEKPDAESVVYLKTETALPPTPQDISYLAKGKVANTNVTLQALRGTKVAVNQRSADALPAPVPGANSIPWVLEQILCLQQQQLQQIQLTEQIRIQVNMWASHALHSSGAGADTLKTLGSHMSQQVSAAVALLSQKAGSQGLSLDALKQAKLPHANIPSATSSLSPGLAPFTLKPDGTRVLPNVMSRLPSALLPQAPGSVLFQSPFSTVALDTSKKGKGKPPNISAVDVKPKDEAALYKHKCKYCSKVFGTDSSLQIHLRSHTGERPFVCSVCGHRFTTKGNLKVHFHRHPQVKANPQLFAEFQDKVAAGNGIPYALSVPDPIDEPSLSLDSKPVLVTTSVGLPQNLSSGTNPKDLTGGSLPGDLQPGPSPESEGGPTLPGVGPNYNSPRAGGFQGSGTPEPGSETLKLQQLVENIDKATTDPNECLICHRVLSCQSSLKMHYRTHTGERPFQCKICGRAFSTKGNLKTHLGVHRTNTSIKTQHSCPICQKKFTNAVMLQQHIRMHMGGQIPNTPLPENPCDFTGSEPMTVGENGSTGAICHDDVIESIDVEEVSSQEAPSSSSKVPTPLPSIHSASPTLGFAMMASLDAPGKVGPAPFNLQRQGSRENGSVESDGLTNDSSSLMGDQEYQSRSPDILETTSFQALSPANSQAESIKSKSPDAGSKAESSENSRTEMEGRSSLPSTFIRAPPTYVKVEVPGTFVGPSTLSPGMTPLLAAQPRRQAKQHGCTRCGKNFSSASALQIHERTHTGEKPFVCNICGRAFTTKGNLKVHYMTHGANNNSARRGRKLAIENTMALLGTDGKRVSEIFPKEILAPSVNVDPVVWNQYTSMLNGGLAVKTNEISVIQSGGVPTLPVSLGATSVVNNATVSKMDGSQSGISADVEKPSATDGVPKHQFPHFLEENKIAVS
T1 sequence (Q96SW2 whole entry, the tested form may be a part): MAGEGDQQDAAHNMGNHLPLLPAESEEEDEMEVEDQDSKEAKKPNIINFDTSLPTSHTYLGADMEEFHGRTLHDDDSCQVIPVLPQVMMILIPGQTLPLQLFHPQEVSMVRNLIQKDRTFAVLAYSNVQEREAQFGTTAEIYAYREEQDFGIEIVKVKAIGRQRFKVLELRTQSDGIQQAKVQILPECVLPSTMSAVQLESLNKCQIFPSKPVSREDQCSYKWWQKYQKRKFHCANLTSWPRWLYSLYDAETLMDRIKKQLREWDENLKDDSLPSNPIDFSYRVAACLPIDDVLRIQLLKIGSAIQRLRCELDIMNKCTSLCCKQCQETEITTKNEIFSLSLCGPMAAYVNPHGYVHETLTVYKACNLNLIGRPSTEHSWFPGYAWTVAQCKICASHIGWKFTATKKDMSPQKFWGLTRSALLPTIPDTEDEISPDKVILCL
T1 sequence (Q16531 whole entry partner, the tested form may be a part): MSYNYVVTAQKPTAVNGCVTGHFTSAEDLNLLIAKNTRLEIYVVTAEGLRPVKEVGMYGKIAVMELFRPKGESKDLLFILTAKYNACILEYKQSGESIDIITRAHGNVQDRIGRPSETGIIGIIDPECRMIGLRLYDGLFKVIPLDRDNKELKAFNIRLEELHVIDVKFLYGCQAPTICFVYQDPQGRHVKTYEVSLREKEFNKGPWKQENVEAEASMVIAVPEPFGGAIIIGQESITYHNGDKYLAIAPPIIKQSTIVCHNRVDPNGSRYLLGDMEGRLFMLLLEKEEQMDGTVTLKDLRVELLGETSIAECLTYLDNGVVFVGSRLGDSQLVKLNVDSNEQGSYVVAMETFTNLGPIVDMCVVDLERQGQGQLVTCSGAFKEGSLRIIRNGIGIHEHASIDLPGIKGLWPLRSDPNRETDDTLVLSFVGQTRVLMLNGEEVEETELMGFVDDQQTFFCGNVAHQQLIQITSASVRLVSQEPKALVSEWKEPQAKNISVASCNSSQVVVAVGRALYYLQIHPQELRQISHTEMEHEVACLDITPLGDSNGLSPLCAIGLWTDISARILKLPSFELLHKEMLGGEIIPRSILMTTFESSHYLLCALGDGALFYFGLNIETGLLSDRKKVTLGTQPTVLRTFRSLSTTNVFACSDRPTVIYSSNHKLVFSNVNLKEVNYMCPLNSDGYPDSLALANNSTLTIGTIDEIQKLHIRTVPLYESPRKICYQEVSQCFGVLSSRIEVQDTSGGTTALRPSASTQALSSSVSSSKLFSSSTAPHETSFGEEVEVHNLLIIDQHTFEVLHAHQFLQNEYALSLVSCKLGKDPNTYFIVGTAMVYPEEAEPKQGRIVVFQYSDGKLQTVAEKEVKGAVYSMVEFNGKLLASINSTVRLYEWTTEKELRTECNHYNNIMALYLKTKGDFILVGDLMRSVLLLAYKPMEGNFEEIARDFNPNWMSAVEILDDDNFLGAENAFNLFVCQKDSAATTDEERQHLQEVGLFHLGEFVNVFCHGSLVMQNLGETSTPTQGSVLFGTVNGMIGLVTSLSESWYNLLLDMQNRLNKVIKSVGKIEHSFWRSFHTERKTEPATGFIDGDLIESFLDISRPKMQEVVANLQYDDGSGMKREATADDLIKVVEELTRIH
Method: The HiBiT system from Promega was used to develop high-throughput and quantitative assays to measure changes in SALL4 protein levels in response to compounds. The HiBiT tag was derived from a split Nanoluciferase and has the following protein sequence: […] (SEQ ID No: 1). The complementary fragment of Nanoluciferase (known as LgBiT, from Promega), was added to the HiBiT tag to form an active Nanoluciferase enzyme whose activity can be precisely measured. In this way, the levels of a fusion protein with the HiBiT tag can be quantified in cell lysates.
DNA constructs, based on the Invitrogen pLenti6.2/V5 DEST backbone, were constructed with the HiBiT tag upstream of SALL4 and expressed the fusion protein from a CMV promotor.
To ensure moderate and consistent expression of the HiBiT-SALL4 fusion protein across all cells in the population, stable cell lines were derived from clones. GripTite 293 MSR cells (293GT) from ThermoFisher Scientific (Catalog number: CRL-R79507), were stably transfected with prepared constructs via electroporation. Following recovery, cells were selected by 10 ug/mL blasticidin in culture media.
The levels of HiBiT-SALL4 tagged fusion proteins in compound-treated cell lines were measured as follows:
On day 1, cells were diluted to 1.0×10^6 cells/ml in normal growth medium. 20 μL of cell suspension were plated in each well of a solid white 384-well plate. Plates were incubated overnight in a 37° C. and 5% CO2 humidified tissue culture incubator.
On day 2, serial dilutions of compounds were made in 384-well plates. Compound plates were set up with DMSO in columns 1, 2, 23, 24, and 10-point compound dilution series in column 3-12 and column 13-22. 10 mM stock solution of compound were placed into column 3 or 13 and a 1:5 serial dilution was carried out until there was a 10-point dilution series per compound. 100 nL of diluted compounds were transferred into the plated cells by Echo® (Labcyte) acoustic transfer. The highest concentration of compound was 50 μM. Plates were incubated overnight (18 hours) in a 37° C. and 5% CO2 humidified tissue culture incubator.
On day 3, plates were removed from the incubator and allowed to equilibrate at room temperature for 60 minutes. HiBiT substrate (Nano-Glo® HiBit Lytic Detection System, Promega Catalogue number: N3050) was added as described by the manufacturers protocols. Plates were incubated at room temperature for 30 minutes and luminescence was read using an EnVision® reader (PerkinElmer®). Data was analyzed and visualized using the Spotfire® software package.
SALL4 Amax reflects the DMSO-normalized, curve-fitted percentage of SALL4-HiBiT remaining at 50 uM. It was calculated by normalizing DMSO controls to 100%, parametric curve fitting of the dose response data (10-point, 5-fold), followed by calculation of response at 50 uM using the fitted equation.
This assay produced a range of SALL4 AC50 and Amax values over several repeat runs due to normal variations in the assay. For a comparison to the compounds described in PCT/IB2020/062070, the arithmatic mean values are reported over the number of repeats specified. […] The compounds of the present disclosure are therefore expected to have improved toxicological properties (Matyskiela, M. E., Couto, S., Zheng, X. et al. SALL4 mediates teratogenicity as a thalidomide-dependent cereblon substrate. Nat Chem Biol 14, 981-987 (2018); Donovan, K. A. et al. Thalidomide promotes degradation of SALL4, a transcription factor Implicated in Duane Radial Ray syndrome. eLife 2018; 7:e38430).

Q: For `CCN1CCC[C@@H](Oc2ccc3c(c2)CN(C2CCC(=O)NC2=O)C3=O)C1` (mixture of isomers) [Example 1, 3-(5-(((R)-1-ethylpiperidin-3-yl)oxy)-1-oxoisoindolin-2-yl)piperidine-2,6-dione], which “HbF Amax” value (Fetal Hemoglobin (HbF)) is on record?
A: 66.5%

Q: What about the “SALL4 Amax” value (SALL4; DMSO-normalized, curve-fitted percentage of SALL4-HiBiT remaining at 50 uM, mean over repeats) of the same compound?
A: 72.21%

Q: What about the DC50 (SALL4; arithmatic mean over number of repeats, 18 hours, top 50 μM, read-out: SALL4 AC50) of the same compound?
A: 49 nM
